As a reminder, the IC50 is the concentration needed to halve the response being measured.

One test addresses T1, BLT1 (Homo sapiens, UniProt Q15722).
T1 construct: expressed in transfected cells; host or cells: CHO cells stably expressing BLT1 (CHO-BLT1)
Briefly: LTB4-induced chemotactic motility, Transwell, CHO-BLT1 cells. The test is classed as cell-based. The note with it: 10 μM pre-treatment, LTB4 10 nM. How it is done:
(§1) Chemotactic motility was analyzed using a Transwell chamber including a polycarbonate filter (8-μm pore size, Corning Costar) with a 6.5-mm diameter. Specifically, the lower surface of the filter was coated with 10 μg/mL fibronectin in a serum-free RPMI 1640 medium at 37° C. for 1 hour. The experiment was performed by placing the filter dried and coated with RPMI 1640 media containing various amounts of LTB4 in the lower wells of the Transwell chamber, and loading CHO cells stably expressing BLT1 and BLT2 into the upper wells containing serum-free RPMI 1640 media finally at 2×10^4 cells/100 μL. To evaluate the effect of inhibitors, the cells were pre-treated with each inhibitor for 30 minutes before dispensing. After the cells were cultured at 37° C. in 5% CO2 for 3 hours, the filters were fixed with methanol for 3 minutes, and stained with hematoxylin and eosin for 10 minutes. In the experiment, the cells were BLT2-expressing cells (CHO-BLT2 cells) and BLT1-expressing cells (CHO-BLT1 cells), and LY255283 and U75302 were used as positive controls for each type of the cells, and BLT2 ligand LTB4, (300 nM), BLT1 ligand LTB4 (10 nM), and lysophosphatidic acid (LPA; 100 nM) were used as comparative controls. The chemotactic motility was quantitatively analyzed by counting the cells on the lower side of the filter under an optical microscope (magnification, 200×). For each analysis, 6 fields were subjected to counting, each sample was analyzed twice, and the analysis was repeated three times.

The next test addresses T2, BLT2 (Homo sapiens, UniProt Q9NPC1).
T2 construct: HA; expressed in transfected cells
T2 sequence (Q9NPC1 with tags, fused parts or gaps): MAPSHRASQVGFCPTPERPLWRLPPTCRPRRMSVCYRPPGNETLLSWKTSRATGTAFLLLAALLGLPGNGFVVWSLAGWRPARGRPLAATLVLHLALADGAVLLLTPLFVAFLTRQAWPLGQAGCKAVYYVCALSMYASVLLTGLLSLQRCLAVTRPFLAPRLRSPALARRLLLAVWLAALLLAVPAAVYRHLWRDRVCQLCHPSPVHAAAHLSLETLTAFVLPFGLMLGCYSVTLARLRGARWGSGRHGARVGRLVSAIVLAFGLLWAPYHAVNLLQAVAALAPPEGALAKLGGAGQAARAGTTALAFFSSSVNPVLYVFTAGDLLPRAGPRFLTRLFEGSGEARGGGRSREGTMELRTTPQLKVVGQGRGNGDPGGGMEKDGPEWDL
Kind of test: LTB4-induced chemotactic motility, Transwell, CHO-BLT2 cells. Type of test: cell-based. The note with it: LTB4 300 nM; for inhibition at 10 µM: read-out: chemotactic motility inhibited compared with LTB4 (DMSO+). Here is the method:
as §1

Test [1] has as its target T3, BLT2-expressing cells (CHO-BLT2 cells) (Homo sapiens, UniProt Q9NPC1).
T3 construct: HA; expressed in transfected cells
T3 sequence (Q9NPC1 with tags, fused parts or gaps): T2 sequence (Q9NPC1 with tags, fused parts or gaps)
Briefly: MTT cell growth of LTB4-stimulated BLT2-expressing cells. The test is classed as cell-based. The note with it: LTB4 300 nM; for cell growth compared with the control DMSO: pre-treated at 10 μM; for inhibition at 10 µM: read-out: growth inhibitory effect. How it is done: Cell viability according to treatment of the compounds prepared in the examples were measured by a 3-(4,5-dimethylthiazol-2-yl)-2,5-diphenyltetrazolium bromide (MTT) method.
More specifically, 1×10^4 each of the BLT2-nonexpressing cells (CHO-pcDNA3.1 cells) and BLT2-expressing cells (CHO-BLT2 cells), which were prepared in Experimental Example 1, were dispensed in a […], and cultured for 24 hours. Afterward, the culture medium was removed, a serum-free RPMI medium was added, and after two hours, the cells were pre-treated with each of the compound prepared in one of the examples (10 μM), 10 μM DMSO (compound solvent) as a control, and 10 μM 1-[5-ethyl-2-hydroxy-4-[[6-methyl-6-(1H-tetrazol-5-yl)heptyl]oxy]phenyl]-ethanone (LY255283; Cayman) as a positive control for 1 hour. Subsequently, after treatment of LTB4 (300 nM), the cells were cultured for 24 hours. 20 μL of an MTT solution (5 mg/mL, Sigma-Aldrich) was added to each well, the cells were cultured in a humid CO2 incubator at 37° C. for 4 hours, a supernatant was removed, and 200 μL of DMSO was added to each well to dissolve insoluble violet formazan crystals. Absorbance was measured using a microplate reader (Molecular Devices, Sunnyvale, Calif.) at 550 nm, and the measurement was repeated three times.

Test [2] concerns cancer cells (MDA-MB-231). Kind of test: Metastasis of breast cancer cells in nude mice. The conditions noted are these: MDA-MB-231 in nude mice, i.p.; LMT-696 and LY255283 2.5 mg/kg, U75302 0.25 mg/kg; 15 weeks. Type of test: in vivo. How it is done: An experiment for the metastasis of breast cancer cells according to the treatment of the compound of the present invention was approved by the Ethics Committee of Korea University, and all experimental animals used in this experiment were treated according to the approved guidelines of the Korea University Animal Care and Use Committee. Six-week-old female nude mice (Charles River, Wilmington, Mass.) were injected with cancer cells to confirm cancer cell metastasis. The breast cancer cells were pre-treated with the compound of the present invention (LMT-696, 10 μM), LY255283, U75302 and DMSO, and 24 hours later, harvested with trypsin-EDTA, resuspended in PBS, and then 2×10^6 of the breast cancer cells were intraperitoneally injected into mice anesthetized with zoletil (50 mg/kg). After five days, the compound of the present invention (LMT-696; 2.5 mg/kg), LY255283 (2.5 mg/kg), U75302 (0.25 mg/kg) and DMSO were injected intraperitoneally three times every five days. At 15 weeks after the injection of the breast cancer cells, the mice were dissected to observe the cancer cell metastasis.

The test system of test [3] is asthma-induced mice (OVA+LPS). Briefly: OVA+LPS-induced severe asthma mice: AHR and cell influx. The test is classed as in vivo. The note with it: 10 mg/kg, airway constrictor 50 mg/ml. The text has this: Mast cells play a pivotal role in the initial reaction to asthma, and when an allergen enters the body from the outside through an airway, the mast cells are activated, thereby secreting various cytokines (interleukin-4 and interleukin-13). Due to the cytokines, the influx of inflammatory cells, the generation of mucus and the airway contraction occur. The inventors used 7-week-old (18 to 20 g) female BALB/c mice provided by Orient (Seoungnam, Korea) for the experiment to confirm the antiasthma effect, and then the asthma was induced in the mice. On the first and 14th days, 2.5 mg of an adjuvant, aluminum hydroxide gel (alum; Pierce, Rockford, Ill.) was included in […] of ovalbumin (OVA) to intraperitoneally sensitize female […] mice. On the 21st, 22nd and 23rd days of two initial sensitizations, 1% OVA was sprayed into the mice using an ultrasonic nebulizer. The compound of the present invention (LMT-696; 5 mg/kg), LY255283 (5 mg/kg, Cayman) or DMSO was intraperitoneally injected at the 1 hour before the 1% OVA spraying. On the 24th day of the initial sensitization, airway hyperresponsiveness (AHR) was detected, and on the 25th day, the mice were dissected to observe asthma phenotypes, for example, inflammatory cytokine IL-4 expression and the influx of inflammatory cells (neutrophils). In the case of lipopolysaccharide (LPS)-induced severe asthma animal models, on the 0, 1st, 2nd and 7th days, 75 μg of OVA and 1 mg of LPS were intranasally injected into Balb/c mice for sensitization. On the 14th, 15th, 21th and 22th days, 50 μg of OVA was injected into the nose for a challenge. The compound of the present invention (LMT-1013) (1, 3, 10 or 30 mg/kg), montelukast (10 mg/kg, DRS) or a control buffer (10% DMA, 5% Tween 80, 85% brine) were treated one hour before the challenge by injecting 50 μg of OVA into the nose. On the 23rd day of the initial sensitization, AHR was detected, and on the 24th day, the mice were dissected to observe a severe asthma phenotype, for example, the influx of the inflammatory cells (neutrophils). In addition, the AHR detection was performed after an airway constrictor, methacholine (6.25 to 50 mg/ml depending on conditions), was administered to the mice. The administration of the airway constrictor was performed by spraying through an inlet of the chamber using an ultrasonic nebulizer for 3 minutes. The AHR was analyzed using an enhanced pause as the indicator of the asthma phenomenon. Bronchoalveolar lavage fluid cell counts were quantified by counting cells under an optical microscope (magnification, 200×). In each analysis, 4 fields were subjected to counting, each sample was analyzed twice, and the analysis was repeated three times.

T1 sequence (Q15722 whole entry, species assumed): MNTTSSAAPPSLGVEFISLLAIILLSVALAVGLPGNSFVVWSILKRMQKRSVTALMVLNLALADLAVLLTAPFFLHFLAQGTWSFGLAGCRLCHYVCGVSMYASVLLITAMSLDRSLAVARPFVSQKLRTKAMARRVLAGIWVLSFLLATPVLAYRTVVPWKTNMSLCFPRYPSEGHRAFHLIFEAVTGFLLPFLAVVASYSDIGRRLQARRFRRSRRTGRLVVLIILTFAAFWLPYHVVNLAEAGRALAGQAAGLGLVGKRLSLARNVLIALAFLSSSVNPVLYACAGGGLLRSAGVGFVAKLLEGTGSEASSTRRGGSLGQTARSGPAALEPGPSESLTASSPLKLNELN

For `CCCCC(=O)N(CC#Cc1ccc(C(=O)N2CCN(C)CC2)cc1)c1ccccc1` [LMT-692, N-(3-(4-(4-methylpiperazine-1-carbonyl)phenyl)prop-2-ynyl)-N-phenylpentanamide], the “inhibitory effect on chemotactic motility” value on BLT1 was “did not exhibit the inhibitory effect”. The inhibition at 10 µM on BLT2 (10 μM pre-treatment) was found to be 66%. In addition, at BLT2 (serum-free, read-out: IC50 of chemotactic motility inhibition), the concentration for half-maximal inhibition (IC50) was 7.57 µM. In addition, the “cell growth compared with the control DMSO” value in test [1] is listed as 88.0%.
Consider `CCCCC(=O)N(CC#Cc1ccc(C(=O)N2CCNCC2)cc1)c1ccccc1` [LMT-694, N-phenyl-N-(3-(4-(piperazine-1-carbonyl)phenyl)prop-2-ynyl)pentanamide], for which, at BLT1, the “inhibitory effect on chemotactic motility” value was “did not exhibit the inhibitory effect”. In addition, at BLT2 (10 μM pre-treatment), the inhibition at 10 µM is 90%. Besides, the “cell growth compared with the control DMSO” value in test [1] stood at 16.7%.
As for `CCCCC(=O)N(CC#Cc1cccc(C(=O)N2CCNCC2)c1)c1ccccc1` [LMT-837, N-phenyl-N-(3-(3-(piperazine-1-carbonyl)phenyl)prop-2-ynyl)pentaneamide], the inhibition at 10 µM in test [1] is 65%.
As for `CCCCC(=O)N(CC#Cc1ccc(C(=O)N2CCN(C(C)C)CC2)cc1)c1ccc(F)cc1` [LMT-841, N-(4-fluorophenyl)-N-(3-(4-(4-isopropylpiperazine-1-carbonyl)phenyl)prop-2-ynyl)pentaneamide], in test [1], the inhibition at 10 µM turned out to be 60%.
On to `CCCCC(=O)N(CC#Cc1cccc(C(=O)N2CCN(C(C)C)CC2)c1)c1ccccc1` [LMT-842, N-(3-(3-(4-isopropylpiperazine-1-carbonyl)phenyl)prop-2-ynyl)-N-phenylpentaneamide], for which the inhibition at 10 µM in test [1] came out at 70%.
Turning to `CCCCC(=O)N(CC#Cc1ccc(C(=O)N(CC)CC)cc1)c1ccccc1` [LMT-883, N,N-diethyl-4-(3-(N-phenylpentaneamido)prop-1-ynyl)benzamide], the inhibition at 10 µM in test [1] turned out to be 99%.
In the case of `CCCCC(=O)N(CC#Cc1ccc(C(=O)N2CCN(C(C)C)CC2)cc1)c1cccc(F)c1` [LMT-886, N-(3-fluorophenyl)-N-(3-(4-(4-isopropylpiperazine-1-carbonyl)phenyl)prop-2-ynyl)pentaneamide], in test [1], the inhibition at 10 µM came out at 99%.
Same read-out and setting: next, `CCCCC(=O)N(CC#Cc1ccc(C(=O)NCCN(C)C)cc1)c1ccccc1` [LMT-1016, N-(2-(dimethylamino)ethyl)-4-(3-(N-phenylpentaneamido)prop-1-yn-1-yl)benzamide]: 99%.
As to `CCCCC(=O)N(CC#Cc1ccc(C(=O)NC(C)C(=O)OC)cc1)c1ccccc1` (stereo not drawn) [LMT-1018, methyl 2-(4-(3-(N-phenylpentaneamido)prop-1-yn-1-yl)benzamido)propanoate], the inhibition at 10 µM in test [1] was found to be 71.6%.
`CCCCC(=O)N(CC#Cc1ccc(C(=O)NC(C)C(=O)O)cc1)c1ccccc1` (stereo not drawn) [LMT-1019, 2-(4-(3-(N-phenylpentaneamido)prop-1-yn-1-yl)benzamido)propanoic acid]: the inhibition at 10 µM in test [1] came out at 99%.
On to `CCc1cc(C(C)=O)c(O)cc1OCCCCCC(C)(C)c1nnn[nH]1` [LY255283, 1-[5-ethyl-2-hydroxy-4-[[6-methyl-6-(1H-tetrazol-5-yl)heptyl]oxy]phenyl]-ethanone, reference compound], for which the “metastasis of the cancer cells inhibited as compared with the control” value in test [2] is 36%. Also, the “chemotactic motility as compared with cells treated with the ligand LTB4” value at BLT2 (10 μM pre-treatment) came to 90%. Moreover, in test [1], the “cell growth compared with the control DMSO” value is reported as “approximately 90%”.
Take `CCCCC/C=C\C[C@@H](O)/C=C/c1cccc(C[C@@H](O)CCCCO)n1` [U75302, reference compound]: the “chemotactic motility as compared with cells treated with the ligand LTB4” value at BLT1 stood at 90%. Besides, the “metastasis of the cancer cells inhibited as compared with the control” value in test [2] is given as “not inhibited”.
On to `CC(C)(O)c1ccccc1CC[C@@H](SCC1(CC(=O)O)CC1)c1cccc(/C=C/c2ccc3ccc(Cl)cc3n2)c1` [montelukast, reference compound], for which the AHR reduced in test [3] is recorded as 64%.

The values above are taken from patent publication US10766857B2, “Compound having BLT inhibitory activity and composition, for preventing or treating inflammatory diseases, comprising same as active ingredient” (DONGGUK UNIVERSITY INDUSTRY-ACADEMIC COOPERATION FOUNDATION, priority 2015, dated 2020).
